# Like-named read-outs stand apart in the source and are kept apart here.
# Experiments:
# HeLa cells [1] = experiment: MTT assay, growth inhibition of HeLa cells; format: cell-based, human; settings: for inhibition at 1 µM / inhibition at 5 µM / inhibition at 15 µM / inhibition at 30 µM / inhibition at 60 µM / inhibition at 120 µM / inhibition at 180 µM / inhibition at 240 µM / IC50: Homo sapiens, HeLa; for inhibition at 1 µM / inhibition at 5 µM / inhibition at 15 µM / inhibition at 30 µM / inhibition at 60 µM / inhibition at 120 µM / inhibition at 180 µM / inhibition at 240 µM: read-out: Growth inhibition rate in HeLa cells
# Method: (§1) Cells were cultured in improved medium supplemented with 10% FBS and kept at 37°C in a […] humidified atmosphere containing 5% CO2. Logarithmic phase cells were used for the experiment and were treated with different concentrations of different medications for different amounts of time. […] Inhibitors were made into 10 mM stock solutions with DMSO, filtered, and kept at room temperature away from light. These inhibitor stock solutions were diluted to the required concentration (1, 5, 15, 30, 60, 120, 180, or 240 μM) before every experiment. The final doses of nedaplatin were […]. In order to determine whether an HPA inhibitor sensitized cells to nedaplatin, 10 μM of inhibitor number 16 (No. 16) was added into each experimental well with nedaplatin.
# 200 μl of single-cell suspension at a density of 5 × 10^4 cells/ml was seeded into 96-well plates. When cells were adherent, the medium was replaced with 200 μl of medium containing different concentrations of inhibitor or nedaplatin, and the cells were further incubated for 24 hours to 96 hours respectively. 20 μl MTT solution ([…] in phosphate buffered saline (PBS)) was added to each well 4 hours before the treatment ended. The cells were then incubated for another 4 hours, after which the supernatants were removed. The cells were totally solubilized in 150 μl DMSO. OD values were measured at the wavelength of 492 nm with a reference wavelength of 630 nm. Inhibition rate (IR) in the cells was calculated as follows: IR = ((OD2-OD0)-(OD1-OD0))/(OD2-OD0) × 100%, where OD0 was the OD value of blank wells, OD2 was the value of normal control wells, and OD1 was the value of experimental wells. Each condition was replicated in six separate wells.
# human recombinant HPA = molecular target: T1, human recombinant HPA (Homo sapiens, UniProt Q9Y251); experiment: Detection of HPA activity inhibition (Heparan Degrading Enzyme Assay Kit); format: biochemical; settings: 31 mIU human recombinant HPA, 37°C, 45 minutes; read-out: IC50, inhibitory effect on heparanase activity
# T1 sequence (Q9Y251 158-543 limits assumed): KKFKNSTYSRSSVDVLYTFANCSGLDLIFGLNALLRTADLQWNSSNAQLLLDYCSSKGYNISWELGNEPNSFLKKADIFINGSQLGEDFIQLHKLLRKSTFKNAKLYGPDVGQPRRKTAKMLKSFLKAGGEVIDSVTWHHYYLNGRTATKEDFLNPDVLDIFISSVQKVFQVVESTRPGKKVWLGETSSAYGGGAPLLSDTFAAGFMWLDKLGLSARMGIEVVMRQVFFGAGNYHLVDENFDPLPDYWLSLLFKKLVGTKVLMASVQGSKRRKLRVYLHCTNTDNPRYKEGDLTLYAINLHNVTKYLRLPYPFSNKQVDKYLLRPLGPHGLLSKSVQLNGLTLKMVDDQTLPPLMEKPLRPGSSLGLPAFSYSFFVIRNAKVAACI
# T1 sequence (Q9Y251 36-109 limits assumed): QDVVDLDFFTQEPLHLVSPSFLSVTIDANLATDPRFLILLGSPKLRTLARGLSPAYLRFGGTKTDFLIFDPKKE
# Method: The final reaction volume of each vial was 100 μl. […] Then, 100 μl of terminating liquid was added into each well. OD values were examined at a wavelength of 450 nm. Each concentration was tested in three separate wells. GraphPad Prism 5 (GraphPad Prism Software Inc., San Diego) was used to calculate the inhibitory IC50 values.
# p53 = p53 expression in HeLa and Siha cells (western blot and PCR); format: cell-based, human; settings: both HeLa and Siha cells, 50 μM, 48 hours
# Method: (§2) Cells were washed with precooled PBS after being treated with inhibitor for 48 hours, and cell lysis solution was added to extract protein. The sample concentration was measured by the bicinchoninic acid method. 30 μg of protein was separated by 10% polyacrylamide gel electrophoresis (PAGE) and transferred to polyvinylidene difluoride membranes. After blocking in non-fat milk solution at room temperature, the membranes were incubated with diluted primary antibodies against either proteins of interest or β-actin overnight at 4°C. After consecutive washes, the membranes were incubated with secondary antibody (diluted 1:5000) at room temperature for 1 h. Then, the membranes were developed with enhanced chemiluminescence and imaged with ImageQuant LAS4000 (GE Healthcare Life Sciences, Pittsburgh, PA). The grey values of protein bands were analyzed using Image J (National Institutes of Health, USA). The relative levels of proteins of interest were calculated in comparison to the internal reference β-actin. The experiment was repeated three times.
# (§3) Levels of HPA, p53, c-Myc, and hTERT mRNA were analyzed by real-time PCR. mRNA was extracted from cells and separated and purified with Trizol. The total RNA concentration was measured with an ultraviolet spectrophotometer. The quality of total RNA was assessed using 1.5% agarose gel electrophoresis. […]
# [2] = tested on: HaCaT human normal keratinocytes; experiment: MTT assay, growth inhibition of HaCaT cells; format: cell-based; settings: time not given
# Method: as §1
# (§4) 200 μl of single-cell suspension at a density of 5 × 10^4 cells/ml was seeded into 96-well plates. […] OD values were measured at the wavelength of 492 nm with a reference wavelength of 630 nm. Inhibition rate (IR) in the cells was calculated as follows: IR = ((OD2-OD0)-(OD1-OD0))/(OD2-OD0) × 100%, where OD0 was the OD value of blank wells, OD2 was the value of normal control wells, and OD1 was the value of experimental wells. […]
# Siha cells [3] = experiment: MTT assay, growth inhibition of Siha cells; format: cell-based, human
# Method: as §1, §4
# HPA = HPA expression in HeLa and Siha cells (immunocytochemical staining, western blot, real time PCR); format: cell-based, human; settings: 50 μM, 24 hours, stronger after 48 hours
# From the text: The experiment was repeated three times.
# The experiment was repeated twice.
# Siha cells [4] = experiment: Cell wound healing assay (migration), Siha cells; format: cell-based, human; settings: 50 μM, 24 hours, compared to control
# Method: (§5) Straight lines 0.5 cm apart from each other were marked on the bottoms of culture dishes opposite the label lines. Logarithmic phase cells were seeded into 35 mm culture dishes. Nicks were made 0.5 cm apart on the bottom of the dish along the labeled lines with a 200 μl sterile pipette tip after cells were close to saturated. Dishes were then washed with sterile PBS three times, 2% FBS medium containing 0 or 50 μM of No. 16 inhibitor was added, and dishes were incubated for 24 hours. The scratch width was photographed under phase contrast on an inverted microscope with a digital camera (100× magnification). The experiment was repeated three times.
# HaCaT cells = experiment: Cell wound healing assay (migration), HaCaT cells; format: cell-based, human; settings: 50 μM, 24 hours, compared to control
# Method: as §5
# HeLa cells [5] = experiment: Cell wound healing assay (migration), HeLa cells; format: cell-based, human; settings: 50 μM, 24 hours, compared to control
# Method: as §5
# h-TERT = h-TERT expression in HeLa and Siha cells (western blot and PCR); format: cell-based, human; settings: both HeLa and Siha cells, 50 μM, 48 hours
# Method: as §2, §3
# c-Myc = c-Myc expression in HeLa and Siha cells (western blot and PCR); format: cell-based, human; settings: both HeLa and Siha cells, 50 μM, 48 hours
# Method: as §2, §3
# [6] = 48 hours, MTT, read-out: IC50, growth inhibition of HeLa cells
SMILES,melting point [°C],IC50 (HeLa cells [1]; [6]) [µM],IC50 (human recombinant HPA) [µM],"inhibition at 1 µM (HeLa cells [1]; 1 μM, 48 hs, mean ± s) [%]","inhibition at 5 µM (HeLa cells [1]; 5 μM, 48 hs, mean ± s) [%]","inhibition at 15 µM (HeLa cells [1]; 15 μM, 48 hs, mean ± s) [%]","inhibition at 30 µM (HeLa cells [1]; 30 μM, 48 hs, mean ± s) [%]","inhibition at 60 µM (HeLa cells [1]; 60 μM, 48 hs, mean ± s) [%]","inhibition at 120 µM (HeLa cells [1]; 120 μM, 48 hs, mean ± s) [%]","inhibition at 180 µM (HeLa cells [1]; 180 μM, 48 hs, mean ± s) [%]","inhibition at 240 µM (HeLa cells [1]; 240 μM, 48 hs, mean ± s) [%]",also measured
Clc1ccc(C2NCC(c3ccccc3)C3(CCCCC3)O2)cc1 (stereo not drawn) [No. 11],127.7 to 128.5,70.2,–,1.22 ± 0.0789,2.65 ± 0.0739,5.26 ± 0.294,13.6 ± 1.22,41.8 ± 1.19,71.4 ± 1.15,97.18 ± 0.525,98.02 ± 0.465,–
Fc1ccc(C2NCC(c3ccccc3)C3(CCCCC3)O2)cc1 (stereo not drawn) [No. 12],–,96.6,–,-5.15 ± 0.0626,-1.54 ± 0.472,5.39 ± 0.33,8.76 ± 1.21,31.7 ± 1.21,55.5 ± 0.671,89.01 ± 0.491,90.89 ± 0.416,–
Fc1cccc(F)c1C1NCC(c2ccccc2)C2(CCCCC2)O1 (stereo not drawn) [No. 14],130.4 to 131.2,64.2,4.47,2.92 ± 0.155,4.05 ± 0.888,9.57 ± 0.761,17.9 ± 1.2,46.4 ± 1.22,78.58 ± 0.502,96.98 ± 0.86,98.96 ± 0.517,–
COc1ccc(C2CNC(c3ccccc3F)OC23CCCCC3)cc1 (stereo not drawn) [No. 16],171.3 to 172.5,–,–,–,–,–,–,–,–,–,–,"Effect on p53 expression (p53): increased; IC50 [2]: 1710 µM; IC50 (Siha cells [3]; Homo sapiens, SiHa, read-out: IC50, growth inhibition of Siha cells): 78.8 µM; Effect on HPA levels (HPA): reduced HPA levels; Effect on cell migration (scratch width) (Siha cells [4]): inhibited the migration; Effect on cell migration (scratch width) (HaCaT cells): minimal; Effect on cell migration (scratch width) (HeLa cells [5]): inhibited the migration; IC50 (HeLa cells [1]; 48 h, read-out: IC50, growth inhibition of HeLa cells, 48 hours, MTT): 48.2 µM; inhibition at 1 µM (HeLa cells [1]): 7.41 ± 0.976%; inhibition at 5 µM (HeLa cells [1]): 11 ± 0.467%; inhibition at 15 µM (HeLa cells [1]): 20.2 ± 0.779%; inhibition at 30 µM (HeLa cells [1]): 36.5 ± 0.471%; inhibition at 60 µM (HeLa cells [1]): 59.3 ± 1.1%; inhibition at 120 µM (HeLa cells [1]): 87.6 ± 0.891%; inhibition at 180 µM (HeLa cells [1]): 92.89 ± 0.537%; inhibition at 240 µM (HeLa cells [1]): 92.98 ± 0.237%; Effect on h-TERT expression (h-TERT): decreased; Effect on c-Myc expression (c-Myc): decreased"
[NH2][Pt]1([NH2])[O]CC(=O)[O]1 [nedaplatin],–,–,–,–,–,–,–,–,–,–,–,"IC50, growth inhibition of Siha cells by nedaplatin alone (Siha cells [3]; 48 hours, nedaplatin alone): 11.204 µg/mL; IC50, growth inhibition of HeLa cells by nedaplatin alone (HeLa cells [1]; 48 hours, nedaplatin alone, listed as NDP): 2.878 µg/mL"

# The next lines start with results.
melting point [°C],IC50 (HeLa cells [1]; [6]) [µM],IC50 (human recombinant HPA) [µM],SMILES,"inhibition at 1 µM (HeLa cells [1]; 1 μM, 48 hs, mean ± s) [%]","inhibition at 5 µM (HeLa cells [1]; 5 μM, 48 hs, mean ± s) [%]","inhibition at 15 µM (HeLa cells [1]; 15 μM, 48 hs, mean ± s) [%]","inhibition at 30 µM (HeLa cells [1]; 30 μM, 48 hs, mean ± s) [%]","inhibition at 60 µM (HeLa cells [1]; 60 μM, 48 hs, mean ± s) [%]","inhibition at 120 µM (HeLa cells [1]; 120 μM, 48 hs, mean ± s) [%]","inhibition at 180 µM (HeLa cells [1]; 180 μM, 48 hs, mean ± s) [%]","inhibition at 240 µM (HeLa cells [1]; 240 μM, 48 hs, mean ± s) [%]",also measured
131.7 to 132.6,–,–,COc1ccc(C2CNC(c3c(F)cccc3F)OC23CCCCC3)cc1 (stereo not drawn),–,–,–,–,–,–,–,–,–
111.3 to 112.5,80,28.8,COc1ccc(C2CNC(c3ccc([N+](=O)[O-])cc3)OC23CCCCC3)cc1 (stereo not drawn) [No. 15],9.12 ± 0.166,17 ± 0.732,25.2 ± 0.947,33.2 ± 2.34,36.2 ± 0.592,77.5 ± 3.82,92.4 ± 3.08,95.2 ± 3.11,–
105.4 to 106.7,77.6,14.1,COc1ccc(C2CNC(c3ccc(C)cc3)OC23CCCCC3)cc1 (stereo not drawn) [No. 20],5.01 ± 0.247,5.02 ± 0.0834,13.3 ± 0.32,19.4 ± 1.34,38.49 ± 0.255,66.3 ± 1.14,90.5 ± 1.12,95.44 ± 0.525,–
128.7 to 129.6,75.2,–,COc1ccc(C2CNC(c3ccc(F)cc3F)OC23CCCCC3)cc1 (stereo not drawn) [No. 22],-3.13 ± 0.705,-0.339 ± 0.0726,4.27 ± 0.729,22.1 ± 0.976,36.13 ± 0.285,66 ± 0.898,93.9 ± 1.67,95.18 ± 0.39,–
